Series [1] deals with T1, Bromodomain-containing protein 4 (Homo sapiens, UniProt O60885). Kind of series: Inhibition of BRD4 in human MM1S cells assessed as down regulation of c-Myc incubated for 16 hrs by flow cytometry. It is filed as cell-based. On the technique in general: A flow cytometer gives signals particle by particle.
Series [2] can be described thus: Oral bioavailability in rat. The format is ADME, organism-based. The conditions noted are these: in vivo.
A short description of series [3]: Plasma clearance in dog. It is filed as ADME, Canis lupus familiaris.
A short description of series [4]: Volume of distribution at steady state in rat. The format is ADME. To be noted: in vivo, read-out: Vdss.
Series [5] in a line: Oral bioavailability in dog. The format is ADME, organism-based, Canis lupus familiaris. To be noted: in vivo.
Series [6] in a line: Volume of distribution at steady state in dog. To be noted: in vivo, read-out: Vdss. It is filed as ADME, Canis lupus familiaris.
Series [7] in a line: Thermodynamic solubility of compound in pH 7.4 solution. The format is physicochemical. The conditions noted are these: buffer, read-out: Therm_solubility.
The nature of series [8]: Unbound fraction in rat plasma. The format is ADME, cell-free.
A short description of series [9]: Plasma clearance in rat. It is filed as ADME.
Series [10] concerns the target Bromodomain-containing protein 4 (Homo sapiens, UniProt O60885, N140A).
Series [11] in a line: Intrinsic clearance in rat hepatocytes assessed per million cells. It is filed as ADME, cell-based, Hepatocyte. The conditions noted are these: read-out: CLH.
The subject of another series is MM1.S. Kind of series: Growth inhibition of human MM1S cells after 72 hrs by alamar blue assay. The format is functional. In general terms: The colour change of resazurin is a common sign of viable cells or microbes.
Series [12] is described as follows: Dissociation constant, basic pKa of compound. It is filed as physicochemical.
Series [13] can be described thus: Lipophilicity, log D of compound at pH 7.4. The conditions noted are these: buffer. The format is physicochemical.
For series [14], the target named is T1, Bromodomain-containing protein 4. Kind of series: Displacement of Alexa647-labeled JQ1 derivative from wild type BRD4 tandem domain (44 to 460 residues) (unknown origin) incubated for 1 hr by fluorescence polarization assay.
The nature of series [15]: Unbound fraction in human plasma. It is filed as ADME, cell-free.
The nature of series [16]: Unbound fraction in dog plasma. The format is ADME, cell-free, Canis lupus familiaris.
The target of series [17] is Bromodomain-containing protein 4 (Homo sapiens, UniProt O60885, N433A).
Series [18] in a line: Apparent permeability from apical to basolateral side in human Caco2 cells. The format is ADME, cell-based. To be noted: Caco-2. Background: Caco-2 monolayers are a common model of the intestinal barrier.
The target in series [19] is T1, Bromodomain-containing protein 4. Briefly: Inhibition of BRD4 in human MCF7 cells assessed as down regulation of ERalpha after 18 to 24 hrs by Hoechst staining based cellomics arrayscan analysis. The format is cell-based.
Series [20] in a line: Intrinsic clearance in human hepatocytes assessed per million cells. The conditions noted are these: read-out: CLH. The format is ADME, cell-based, Hepatocyte.
Series [21] can be described thus: Intrinsic clearance in dog hepatocytes assessed per million cells. It is filed as ADME, cell-based, Canis lupus familiaris, Hepatocyte. To be noted: read-out: CLH.
Series [22] addresses T1, Bromodomain-containing protein 4. Kind of series: Inhibition of BRD4 in human LNCAP cells assessed as down regulation of nuclear AR level by immunofluorescence assay. It is filed as cell-based.

Converted amounts (≈) assume the structure as drawn.

The IC50 is the concentration that inhibits the measured activity by half. A word on the bioavailability: it is dose-corrected exposure relative to a reference, in per cent. A low value points to little systemic uptake. For orientation: clearance means a measure of how efficiently the substance is removed, as volume per time. A lower clearance goes with a low capacity for elimination. A word on the fraction unbound: it is the share of the substance not bound to proteins or other matrix. Higher therefore signals weak binding. The term Ki denotes a dissociation constant, usually derived from enzyme kinetics or from competition with a known ligand. A word on the GI50: it is the concentration that inhibits growth by half. Higher therefore signals lower sensitivity of the cells. As usually defined, the pKa is the negative logarithm of the acid dissociation constant. By logD is commonly meant the decadic logarithm of the distribution of all forms, ionised or not, between an organic phase and buffer at a given pH. A lower logD goes with lower lipophilicity. The term Papp A→B denotes the apparent permeability from the apical to the basolateral side of a cell layer.

For the compound `COc1nnc2ccc(N3CCC(c4ccc(CCN5CCN(C)C(=O)[C@H]5C)cc4)CC3)nn12`, the IC50 in series [1] was 10 nM; in [19], 25.1 nM. Further, the results for the bioavailability in series [2] and in series [5] were 72% and 98%, respectively. In addition, the clearance in series [3] and in [9] was 3 mL/min/kg throughout. The Vd in series [4] stood at 0.7 L/kg; in [6], 0.9 L/kg. The solubility thermodynamic in series [7] lay within 280 to 570 µM (≈ 130 to 264 µg/mL). The fraction unbound turned out to be 0.02 in series [8], 0.25 in series [15] and 0.24 in [16]. Also, the figures for the Ki in series [10], in series [14] and in [17] were 126 nM, 3.16 nM and 100 nM, respectively. Besides, the hepatocyte CLint is less than 1 µL/min/1e6 cells in series [11], 2 to 2.2 µL/min/1e6 cells in [20] and less than 1 µL/min/1e6 cells in series [21]. The compound further had a GI50 in the series on MM1.S of 5.01 nM. For the same compound, the pKa in [12] was 6.3. The compound also had a logD in series [13] of 2.5. Further, in series [18], the Papp A→B was determined as 28 ×10⁻⁶ cm/s.

Regarding `CSc1nnc2ccc(N3CCC(c4ccc(OCCN5CCN(C)C(=O)[C@H]5C)cc4)CC3)nn12`, the IC50 was 20 nM in [1], 25.1 nM in series [22] and 31.6 nM in series [19]. The solubility thermodynamic in series [7] amounted to 660 µM (≈ 327 µg/mL). Besides, the results for the Ki in [10], in [14] and in series [17] were 126 nM, 12.6 nM and 158 nM, respectively. The same compound registered a logD in [13] of 2.9. Also, in series [20], the hepatocyte CLint stood at 21 µL/min/1e6 cells.

For `C[C@@H]1C(=O)N(C)CCN1CCOc1ccc(C2CCN(c3ccc4nnc(Cl)n4n3)CC2)cc1`, the IC50 is 79.4 nM in series [1], 25.1 nM in series [22] and 39.8 nM in series [19]. Further, the solubility thermodynamic in [7] worked out at 63 µM (≈ 30.5 µg/mL). In addition, the Ki in series [10] is 316 nM; in series [14], 12.6 nM; in series [17], 200 nM. The same compound gave a GI50 in the series with MM1.S of 19.9 nM. In addition, in series [13], the logD stood at 3.1. For the same compound, the hepatocyte CLint in [20] was 24 µL/min/1e6 cells.

Consider `C[C@@H]1C(=O)N(C)CCN1CCOc1ccc(C2CCN(c3ccc4nncn4n3)CC2)cc1`, for which the IC50 in [1] is 1260 nM; in series [22] it was 1580 nM; in [19], more than 3160 nM. In series [7], the solubility thermodynamic came out at 1000 µM (≈ 450 µg/mL). Further, the figures for the Ki in series [10], in series [14] and in series [17] were 2510 nM, more than 1000 nM and 6310 nM, respectively. In series [13], this compound returned a logD of 1.9. Further, the hepatocyte CLint in series [20] is 180 µL/min/1e6 cells.

As for `C[C@@H]1C(=O)N(C)CCN1CCOc1ccc(C2CCN(c3ccc4nnc(N(C)C)n4n3)CC2)cc1`, the IC50 in [1] is 15.8 nM; in [22], 25.1 nM; in [19], 63.1 nM. Also, the bioavailability in [2] amounted to 42%. Also, the Vd in series [4] turned out to be 0.4 L/kg. The solubility thermodynamic in [7] fell in the range of 1600 to 1680 µM (≈ 788 to 828 µg/mL). Moreover, the fraction unbound came out at 0.04 in series [8], 0.16 in [15] and 0.09 in series [16]. The clearance in [9] was 6 mL/min/kg. Further, the Ki in [10] was 316 nM; in series [14] it was 12.6 nM; in [17], 316 nM. In addition, the hepatocyte CLint in [11] was 13 µL/min/1e6 cells; in [20], 4 to 4.4 µL/min/1e6 cells; in series [21] it was 18 µL/min/1e6 cells. The same compound gave a GI50 in the series with MM1.S of 3.16 nM. For the same compound, the logD in series [13] stood at 2.4.

`C[C@@H]1C(=O)N(C)CCN1CCOc1ccc(C2CCN(c3ccc4nnc(C(F)(F)F)n4n3)CC2)cc1`: the half-maximal inhibitory concentration (IC50) was 10 nM in [1], 39.8 nM in series [22] and 25.1 nM in [19]. In addition, in [7], the solubility thermodynamic stood at 63 µM (≈ 32.6 µg/mL). Also, the Ki is 63.1 nM in series [10], 7.94 nM in series [14] and 398 nM in [17]. In the series with MM1.S, this compound gave a GI50 of 5.01 nM. The compound also returned a logD in [13] of 3.3 to 4.2. The hepatocyte CLint in series [20] was found to be 70 µL/min/1e6 cells.

Take `COc1nnc2ccc(N3CCC(c4ccc(N5CC(CN6CCN(C)C(=O)[C@H]6C)C5)cc4)CC3)nn12`: the results for the IC50 in [1] and in series [19] were less than 2 nM and 3.98 nM, respectively. Besides, the bioavailability in series [2] was 57%; in series [5] it was 73%. Moreover, the results for the clearance in series [3] and in series [9] were 5 mL/min/kg and 7 mL/min/kg, respectively. Also, the Vd in series [4] came to 1.61 L/kg; in [6] it was 0.7 L/kg. Also, in series [7], the solubility thermodynamic lay within 460 to 1000 µM (≈ 232 to 505 µg/mL). Also, the results for the fraction unbound in [8], in series [15] and in [16] were 0.05, 0.32 and 0.27, respectively. Also, the Ki in series [10] was 100 nM; in [14] it was 10 nM; in [17], 158 nM. The hepatocyte CLint in series [11] is less than 1 µL/min/1e6 cells; in series [20], 4 to 4.1 µL/min/1e6 cells; in series [21], 3 µL/min/1e6 cells. This compound also gave a GI50 in the series on MM1.S of 1.58 nM. Besides, the pKa in series [12] worked out at 5.9. This compound also yielded a logD in series [13] of 1.7. The Papp A→B in [18] came out at 46 ×10⁻⁶ cm/s.

As for `COc1nnc2ccc(N3CCC(c4ccc(OCCN5[C@H](C)CN(C(C)=O)C[C@@H]5C)cc4)CC3)nn12`, the IC50 is less than 2 nM in series [1] and 1.58 nM in series [19]. The bioavailability in [2] worked out at 40%; in series [5] it was 28%. The clearance is 11 mL/min/kg in series [3] and 17 mL/min/kg in series [9]. For the same compound, the Vd was 1.5 L/kg in series [4] and 0.6 L/kg in [6]. Further, the solubility thermodynamic in [7] was more than 1000 µM. Also, the fraction unbound in [8] amounted to 0.06; in series [15], 0.19; in series [16], 0.16. The figures for the Ki in [10], in series [14] and in series [17] were 15.8 nM, 1.58 nM and 50.1 nM, respectively. In addition, the hepatocyte CLint in series [11] turned out to be 13 µL/min/1e6 cells; in series [20] it was 12 µL/min/1e6 cells; in series [21], 7 µL/min/1e6 cells. In the series with MM1.S, this compound had a GI50 of less than 2 nM. In series [12], this compound registered a pKa of 6.2. The logD in series [13] stood at 2.5. For the same compound, the Papp A→B in series [18] amounted to 30 ×10⁻⁶ cm/s.
